Experimental data from the NIST ThermoML archive (doi:10.1016/j.jct.2013.04.015).

Test: xn = mol fraction of the nth substance listed
Settings: for surface tension liquid-gas: Wilhelmy plate method; for mass density: 101 kPa, Liquid, Vibrating tube method

CCCCn1cc[n+](C)c1.C[C@H](O)C(=O)[O-] [1-butyl-3-methylimidazolium L-lactate] + CCO
Settings | mass density [kg/m3] | surface tension liquid-gas [mN/m]
298.15 K, x1 = 0.01 | – | 22.44
298.15 K, x1 = 0.0299 | – | 22.99
298.15 K, x1 = 0.0497 | – | 23.47
298.15 K, x1 = 0.0708 | – | 24
298.15 K, x1 = 0.0944 | – | 24.54
298.15 K, x1 = 0.0997 | 897.2 | –
298.15 K, x1 = 0.1987 | 959.5 | –
298.15 K, x1 = 0.2001 | – | 26.97
298.15 K, x1 = 0.3018 | – | 29.2
298.15 K, x1 = 0.3066 | 1002 | –
298.15 K, x1 = 0.4019 | – | 31.51
298.15 K, x1 = 0.4106 | 1028.2 | –
298.15 K, x1 = 0.4954 | 1042.5 | –
298.15 K, x1 = 0.499 | – | 33.45
298.15 K, x1 = 0.5989 | 1058.4 | –
298.15 K, x1 = 0.6216 | – | 35.27
298.15 K, x1 = 0.6985 | 1070.8 | –
298.15 K, x1 = 0.7009 | – | 36.3
298.15 K, x1 = 0.7524 | – | 37.06
298.15 K, x1 = 0.7869 | 1082.1 | –
298.15 K, x1 = 0.8381 | – | 38.77
298.15 K, x1 = 0.8978 | 1095.2 | –
298.15 K, x1 = 1 | 1111.2 | 42.92
308.15 K, x1 = 0.01 | – | 21.58
308.15 K, x1 = 0.0302 | – | 22.12
308.15 K, x1 = 0.0474 | – | 22.62
308.15 K, x1 = 0.0707 | – | 23.22
308.15 K, x1 = 0.0952 | – | 23.9
308.15 K, x1 = 0.0997 | 888.9 | –
308.15 K, x1 = 0.1987 | 951.9 | –
308.15 K, x1 = 0.2028 | – | 26.53
308.15 K, x1 = 0.3026 | – | 28.8
308.15 K, x1 = 0.3066 | 994.7 | –
308.15 K, x1 = 0.406 | – | 31.08
308.15 K, x1 = 0.4106 | 1021.1 | –
308.15 K, x1 = 0.4954 | 1034.3 | –
308.15 K, x1 = 0.4966 | – | 32.88
308.15 K, x1 = 0.5989 | 1050.4 | –
308.15 K, x1 = 0.6053 | – | 34.78
308.15 K, x1 = 0.6882 | – | 35.51
308.15 K, x1 = 0.6985 | 1062.4 | –
308.15 K, x1 = 0.7869 | 1073.8 | –
308.15 K, x1 = 0.7888 | – | 36.81
308.15 K, x1 = 0.8313 | – | 37.9
308.15 K, x1 = 0.8978 | 1086.9 | –
308.15 K, x1 = 1 | 1104.2 | 42.37
318.15 K, x1 = 0.01 | – | 20.88
318.15 K, x1 = 0.0304 | – | 21.56
318.15 K, x1 = 0.0448 | – | 21.9
318.15 K, x1 = 0.0702 | – | 22.56
318.15 K, x1 = 0.0958 | – | 23.39
318.15 K, x1 = 0.0997 | 881.9 | –
318.15 K, x1 = 0.1987 | 944 | –
318.15 K, x1 = 0.203 | – | 26.09
318.15 K, x1 = 0.3032 | – | 28.36
318.15 K, x1 = 0.3066 | 987.7 | –
318.15 K, x1 = 0.4034 | – | 30.45
318.15 K, x1 = 0.4106 | 1014.5 | –
318.15 K, x1 = 0.4954 | 1028.3 | –
318.15 K, x1 = 0.5017 | – | 32.46
318.15 K, x1 = 0.5989 | 1042.6 | –
318.15 K, x1 = 0.6042 | – | 34.23
318.15 K, x1 = 0.6657 | – | 34.84
318.15 K, x1 = 0.6985 | 1055.3 | –
318.15 K, x1 = 0.7561 | – | 35.48
318.15 K, x1 = 0.7869 | 1066.9 | –
318.15 K, x1 = 0.8319 | – | 36.61
318.15 K, x1 = 0.8978 | 1079.8 | –
318.15 K, x1 = 1 | 1097.7 | 42.01
